Laboratory results as given in patent US12370155B2, “Anticancer composition” (NOAHM INC., priority 2018, dated 2025).
Where a name gives a salt, the structure may show the parent alone.

How the values were obtained:
Format in all cases: in vivo, BALB/c nude mice
[1] = test system: 4T1 cells, breast cancer cells; experiment: Tumor volume in 4T1 tumor-bearing mice; conditions: day 18 of administration; intraperitoneal; MET 250, 2DG 500, IP6 500, Ins 500 mg/kg (four-combination: IP6 250 + Ins 250 mg/kg); control 1486.8±67.0; mean±SD
Method: (§1) Five-week-old, female specific pathogen free BALB/c nude mice were purchased and used from Orient Bio Co., Ltd. After quarantine and adaptation for one week, healthy animals without weight loss were selected and used in the test. The test animals were raised in a breeding environment set at a temperature of 23±3° C., a relative humidity of 50±10%, the ventilation number of 10 to 15 times/hour, lighting time of 12 hours (08:00 to 20:00), and illuminance of 150 to 300 Lux. During a pre-test period, the test animals were allowed to freely consume solid feed for the test animals (Cargill Agripurina Co., Ltd.) and drinking water.
(§2) After an adaptation period for one week, in BALB/c nude mice, 4T1 cells (1×10 ^5 cells/mouse), breast cancer cells, were injected to the left breast adipose tissues of the test animals, and then the tumor tissues were visually observed. When the tumor tissue size of the test animals was about 100 mm ^3, the test animals were divided into 9 test groups based on a randomized block design. That is, the 9 test groups were classified into a control group, a MET group (MET 250 mg/kg), a 2DG group (2DG 500 mg/kg), an Ins group (Ins 500 mg/kg), a IP6 group (IP6 500 mg/kg), a MET+2DG group (MET 250 mg/kg+2DG 500 mg/kg), a MET+2DG+Ins group (MET 250 mg/kg+2DG 500 mg/kg+Ins 500 mg/kg), a MET+2DG+IP6 group (MET 250 mg/kg+2DG 500 mg/kg+IP6 500 mg/kg), a MET+2DG+IP6+Ins group (MET 250 mg/kg+2DG 500 mg/kg+IP6 250 mg/kg+Ins 250 mg/kg), and each test group used 10 test animals. The test substance was dissolved in distilled water and intraperitoneally administered at fixed time for 18 days.
The body weight of the test animal during the test period was measured at a fixed time once a week from the test substance administration date. A tumor volume was measured by using a digital caliper every three days, the length and width of the tumor were measured, and the tumor volume was calculated by substituting the following Equation. Tumor volume (mm^3)=(width^2×length)/2

[2] = test system: 4T1 cells, breast cancer cells; experiment: Tumor weight in 4T1 tumor-bearing mice; conditions: day 19 of administration; intraperitoneal; MET 250, 2DG 500, IP6 500, Ins 500 mg/kg (four-combination: IP6 250 + Ins 250 mg/kg); control 1.244±0.22; mean±SD
Method: as §1, §2
[…] The blood was placed in a serum separate tube (Becton Dickinson) and left at room temperature for 30 minutes and centrifuged at 3,000 rpm for 20 minutes to isolate serum and the isolated serum was stored at −70° C. until analysis. […] Tumors were weighed and some were fixed in 10% neutral buffered formalin (NBF, Sigma-Aldrich Co.) and embedded in paraffin to perform tissue immunostaining. The lung was fixed with a Bouin's solution (Sigma-Aldrich Co.), and the tumor nodule metastasized to the lung was observed and a lung metastasis rate was examined.

[3] = test system: 4T1 cells, breast cancer cells; experiment: Incidence of lung metastasis in 4T1 tumor animal model; conditions: 10 animals per group; intraperitoneal; control 100%
Method: as §1, §2
After 14 days of administration of the test substance, the test animals were anesthetized using an anesthetic made by diluting tribromoethanol with tert-amyl alcohol and the blood was collected from the orbit. The blood was placed in a serum separate tube (Becton Dickinson) and left at room temperature for 30 minutes and centrifuged at 3,000 rpm for 20 minutes to isolate serum and the isolated serum was stored at −70° C. until analysis. After taking the blood from the test animals, the tumor was extracted and weighed. Tumors were weighed and some were fixed in 10% neutral buffered formalin (NBF, Sigma-Aldrich Co.) and embedded in paraffin to perform tissue immunostaining. The lung was fixed with a Bouin's solution (Sigma-Aldrich Co.), and the tumor nodule metastasized to the lung was observed and a lung metastasis rate was examined.

Row | Structure (SMILES) | tumor volume [1] [mm^3] | tumor weight [2] [g] | incidence of lung metastasis [3] [%]
1 | OCC1O[C@H](O)C[C@@H](O)[C@@H]1O (mixture of isomers) [2DG, 2-deoxy-D-glucose] | 1350.3±55.2 | 1.092 ± 0.18 | 100
2 | CN(C)C(=N)NC(=N)N [MET, Metformin HCl] | 1400.5±58.6 | 1.134 ± 0.15 | 100
3 | O[C@H]1[C@H](O)[C@@H](O)[C@H](O)[C@@H](O)[C@H]1O [Ins, myo-inositol] | 1190.1±67.3 | 0.904 ± 0.20 | 90
4 | O=P(O)(O)O[C@H]1[C@H](OP(=O)(O)O)[C@@H](OP(=O)(O)O)[C@H](OP(=O)(O)O)[C@@H](OP(=O)(O)O)[C@H]1OP(=O)(O)O [IP6, inositol hexaphosphate] | 1108.5±66.3 | 0.874 ± 0.18 | 90
